Laboratory results published in PubChem BioAssay AID248 (DTP/NCI, 2004).
Values joined by “and” are separate entries in the source; they are usually repeats but may differ in a detail not shown here. Equal entries are not always repeated. Inconclusive results and toxic doses are left out.

Tested on: L1210 leukemia ip in BDF1 mice, survival T/C
Test: NCI In Vivo Anticancer Drug Screen. Data for tumor model L1210 Leukemia (intraperitoneal) in B6D2F1 (BDF1) mice
Details: endpoint: mean survival time, higher = longer survival
Procedure, shortened: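 Each compound was tested against a transplantable tumor grown in mice. The endpoint was survival, with treated animals benchmarked against vehicle controls as a simple ratio.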

[1] = dose: 100.0 mg/kg/injection, schedule: Q04DX003 (ip), vehicle: saline with Tween-80
[2] = dose: 100.0 mg/kg/injection, schedule: Q01DX009 (ip), vehicle: Klucel (hydroxypropylcellulose) (HPC)
[3] = dose: 200.0 mg/kg/injection, schedule: Q01DX009 (ip), vehicle: Klucel (hydroxypropylcellulose) (HPC)

Structure (SMILES): CCCCCCCCCCCCCCCCOc1ccc(C)cc1
- T/C [1]: 100 % of control
- T/C (dose: 200.0 mg/kg/injection, schedule: Q04DX003 (ip), vehicle: saline with Tween-80): 103 % of control
- T/C (dose: 400.0 mg/kg/injection, schedule: Q04DX003 (ip), vehicle: saline with Tween-80): 97 % of control

Structure (SMILES): C=CC12CN(C)C3C4COC(CC41)C1(C(=O)Nc4ccccc41)C32 (centres undefined)
- T/C (dose: 75.0 mg/kg/injection, schedule: Q01DX001 (ip), vehicle: other): 102 % of control

Structure (SMILES): COc1ccc(C(=O)N/N=C/c2ccccc2OC)cc1
- T/C [2]: 92 % of control
- T/C [3]: 100 % of control
- T/C (dose: 400.0 mg/kg/injection, schedule: Q01DX009 (ip), vehicle: Klucel (hydroxypropylcellulose) (HPC)): 96 % of control

Structure (SMILES): Cc1cc(C)c(N(C)C(=O)CCC(=O)O)c(C)c1Br
- T/C (dose: 100.0 mg/kg/injection, schedule: Q01DX001 (ip), vehicle: Klucel (hydroxypropylcellulose) (HPC)): 97 % of control
- T/C [2]: 93 % of control
- T/C (dose: 200.0 mg/kg/injection, schedule: Q01DX001 (ip), vehicle: Klucel (hydroxypropylcellulose) (HPC)): 97 % of control
- T/C [3]: 93 % of control
- T/C (dose: 400.0 mg/kg/injection, schedule: Q01DX001 (ip), vehicle: Klucel (hydroxypropylcellulose) (HPC)): 104 % of control

Structure (SMILES): Cc1cc(C)c(C(=O)O)cc1C(=O)O
- T/C (dose: 50.0 mg/kg/injection, schedule: Q01DX009 (ip), vehicle: saline with Tween-80): 100 % of control
- T/C (dose: 100.0 mg/kg/injection, schedule: Q01DX009 (ip), vehicle: saline with Tween-80): 100 % of control
- T/C (dose: 200.0 mg/kg/injection, schedule: Q01DX009 (ip), vehicle: saline with Tween-80): 106 % of control

Structure (SMILES): C[Si](C)(CCl)CCCO[Si](C)(C)CCl
- T/C (dose: 50.0 mg/kg/injection, schedule: Q01DX001 (ip), vehicle: carboxymethylcellulose (CMC)): 102 % of control
- T/C (dose: 100.0 mg/kg/injection, schedule: Q01DX001 (ip), vehicle: carboxymethylcellulose (CMC)): 108 % of control
- T/C (dose: 200.0 mg/kg/injection, schedule: Q01DX001 (ip), vehicle: carboxymethylcellulose (CMC)): 96 % of control
- T/C (dose: 400.0 mg/kg/injection, schedule: Q01DX001 (ip), vehicle: carboxymethylcellulose (CMC)): 98 % of control

Structure (SMILES): Cc1cc(C)nc(NN=C2CC(C)(C)N(O)C(C)(C)C2)n1
- T/C (dose: 25.0 mg/kg/injection, schedule: Q04DX003 (ip), vehicle: saline): 96 % of control
- T/C (dose: 50.0 mg/kg/injection, schedule: Q04DX003 (ip), vehicle: saline): 98 % of control
- T/C (dose: 100.0 mg/kg/injection, schedule: Q04DX003 (ip), vehicle: saline): 102 % of control

Structure (SMILES): OC1C2CCN(CC2)C1C(c1ccccc1)c1ccccc1 (centres undefined)
- T/C (dose: 25.0 mg/kg/injection, schedule: Q04DX003 (ip), vehicle: saline with Tween-80): 95 % of control
- T/C (dose: 50.0 mg/kg/injection, schedule: Q04DX003 (ip), vehicle: saline with Tween-80): 98 % of control
- T/C [1]: 96 % of control and 87 % of control

Structure (SMILES): C[N+]1(C)C2CCC(OCc3ccccc3)C1COC2 (centres undefined)
- T/C (dose: 75.0 mg/kg/injection, schedule: Q01DX001 (ip), vehicle: saline): 98 % of control
- T/C (dose: 150.0 mg/kg/injection, schedule: Q01DX001 (ip), vehicle: saline): 105 % of control

Structure (SMILES): O=NN(CCCl)C(=O)NC1Cc2ccccc2C1
- T/C (dose: 8.0 mg/kg/injection, schedule: Q01DX001 (ip), vehicle: other): 109 % of control
- T/C (dose: 62.0 mg/kg/injection, schedule: Q01DX001 (ip), vehicle: other): 239 % of control
- T/C (dose: 125.0 mg/kg/injection, schedule: Q01DX001 (ip), vehicle: other): 264 % of control
- T/C (dose: 250.0 mg/kg/injection, schedule: Q01DX001 (ip), vehicle: other): 112 % of control
- T/C (dose: 500.0 mg/kg/injection, schedule: Q01DX001 (ip), vehicle: other): 86 % of control

Structure (SMILES): Nc1ccc([As](=O)(O)O)cc1
- T/C (dose: 25.0 mg/kg/injection, schedule: Q01DX009 (ip), vehicle: saline): 102 % of control
- T/C (dose: 50.0 mg/kg/injection, schedule: Q01DX009 (ip), vehicle: saline): 102 % of control
- T/C (dose: 100.0 mg/kg/injection, schedule: Q01DX009 (ip), vehicle: saline): 94 % of control and 104 % of control
- T/C (dose: 100.0 mg/kg/injection, schedule: Q04DX002 (ip), vehicle: saline): 91 % of control
- T/C (dose: 200.0 mg/kg/injection, schedule: Q04DX002 (ip), vehicle: saline): 102 % of control
- T/C (dose: 400.0 mg/kg/injection, schedule: Q04DX002 (ip), vehicle: saline): 87 % of control

Structure (SMILES): NC(CCSSCCC(N)C(=O)O)C(=O)O (centres undefined)
- T/C (dose: 12.5 mg/kg/injection, schedule: Q04DX002 (ip), vehicle: Klucel (hydroxypropylcellulose) (HPC)): 113 % of control
- T/C (dose: 25.0 mg/kg/injection, schedule: Q04DX002 (ip), vehicle: Klucel (hydroxypropylcellulose) (HPC)): 97 % of control
- T/C (dose: 50.0 mg/kg/injection, schedule: Q04DX002 (ip), vehicle: Klucel (hydroxypropylcellulose) (HPC)): 103 % of control
- T/C (dose: 100.0 mg/kg/injection, schedule: Q04DX003 (ip), vehicle: Klucel (hydroxypropylcellulose) (HPC)): 93 % of control
- T/C (dose: 200.0 mg/kg/injection, schedule: Q04DX003 (ip), vehicle: Klucel (hydroxypropylcellulose) (HPC)): 101 % of control
- T/C (dose: 400.0 mg/kg/injection, schedule: Q04DX003 (ip), vehicle: Klucel (hydroxypropylcellulose) (HPC)): 93 % of control
